# Values quoted from earlier work as cited in PubChem BioAssay AID1259409 (Chemical Carcinogenesis Research Information System (CCRIS), 2018).
# Test system: rodent chemically induced tumor inhibition, incidence and multiplicity
# Assay: CCRIS tumor inhibitor studies
# Conditions: Dose [Inhibitor]: 0, Route [Inhibitor]: ORAL, Species: RAT, Promoter: NONE USED
smiles,measurement,setting,value
CCOC1=C(O)C(=O)O[C@@H]1[C@@H](O)CO,"tumour outcome (control, treated, inhibition, significance)","Carcinogen: 2-AMINO-1-METHYL-6-PHENYLIMIDAZO[4,5-B]PYRIDINE, 105650-23-5, 1% IN DIET FOR 52 WK CONCURRENTLY WITH CARCINOGEN TREATMENT (STUDY DURATION: 52 WK), Strain/Sex: F344/FEMALE, Target Tissue: Type of Lesion: LARGE INTESTINE: ADENOMA OR CARCINOMA, Dose [Carcinogen]: 0.02% IN DIET FOR 52 WK","2/18 (11%), 3/18 (17%), -55%, not significant"
same,"tumour outcome (control, treated, inhibition, significance)","Carcinogen: 2-AMINO-1-METHYL-6-PHENYLIMIDAZO[4,5-B]PYRIDINE, 105650-23-5, 1% IN DIET FOR 52 WK CONCURRENTLY WITH CARCINOGEN TREATMENT (STUDY DURATION: 52 WK), Strain/Sex: F344/FEMALE, Target Tissue: Type of Lesion: MAMMARY GLAND: ADENOCARCINOMA, Dose [Carcinogen]: 0.02% IN DIET FOR 52 WK","8/20 (40%), 6/21 (29%), 28%, not significant"
same,"tumour outcome (control, treated, inhibition, significance)","Carcinogen: DIETHYLNITROSAMINE, 55-18-5, N-METHYL-N-NITROSAUREA, 684-93-5, N-BUTYL-N-(4-HYDROXYBUTYL)NITROSAMINE, 3817-11-6, DIMETHY, Carcinogen: DIETHYLNITROSAMINE, 55-18-5, N-METHYL-N-NITROSAUREA, 684-93-5, N-BUTYL-N-(4-HYDROXYBUTYL)NITROSAMINE, 3817-11-6, DIMETHY, 1% IN THE DIET FOR 24 WK BEGINNING 1 DAY POST CARCINOGEN TREATMENT (STUDY DURATION: 28 WK), Strain/Sex: F344/MALE, Target Tissue: Type of Lesion: SMALL INTESTINE: ADENOMA, Dose [Carcinogen]: 100 MG/KG BW DEN ONCE FOLLOWED BY 20 MG/KG BW MNU 4 TIMES AND 0.05% BBN IN DRINKING WATER DURING FIRST 2 WK THEN 40 MG/K","33%, 13%, 60%, not significant"
same,"tumour outcome (control, treated, inhibition, significance)","Carcinogen: DIETHYLNITROSAMINE, 55-18-5, N-METHYL-N-NITROSOUREA, 684-93-4, N-BUTYL-N-(4-HYDROXYBUTYL)NITROSAMINE, 3817-11-6, DIMETHY, Carcinogen: DIETHYLNITROSAMINE, 55-18-5, N-METHYL-N-NITROSOUREA, 684-93-4, N-BUTYL-N-(4-HYDROXYBUTYL)NITROSAMINE, 3817-11-6, DIMETHY, 1% IN THE DIET FOR 24 WK BEGINNING 1 DAY POST CARCINOGEN TREATMENT (STUDY DURATION: 28 WK), Strain/Sex: F344/MALE, Target Tissue: Type of Lesion: URINARY BLADDER: CARCINOMA, Dose [Carcinogen]: 100 MG/KG BW DEN ONCE FOLLOWED BY 20 MG/KG BW MNU 4 TIMES AND 0.05% BBN IN DRINKING WATER DURING FIRST 2 WK THEN 40 MG/K","7%, 0%, 100%, not significant"
same,"tumour outcome (control, treated, inhibition, significance)","Carcinogen: DIETHYLNITROSAMINE, 55-18-5, N-METHYL-N-NITROSOUREA, 684-93-5, N-BUTYL-N-(4-HYDROXYBUTYL)NITROSAMINE, 3817-11-6, DIMETHY, Carcinogen: DIETHYLNITROSAMINE, 55-18-5, N-METHYL-N-NITROSOUREA, 684-93-5, N-BUTYL-N-(4-HYDROXYBUTYL)NITROSAMINE, 3817-11-6, DIMETHY, 1% IN DIET FOR 24 WK BEGINNING 1 DAY POST CARCINOGEN TREATMENT (STUDY DURATION: 28 WK), Strain/Sex: F344/MALE, Target Tissue: Type of Lesion: THYROID: CARCINOMA, Dose [Carcinogen]: 100 MG/KG BW DEN ONCE FOLLOWED BY 20 MG/KG BW MNU 4 TIMES AND 0.05% BBN IN DRINKING WATER DURING FIRST 2 WK THEN 40 MG/K","7%, 0%, 100%, not significant"
same,"tumour outcome (control, treated, inhibition, significance)","Carcinogen: DIETHYLNITROSAMINE, 55-18-5, N-METHYL-N-NITROSOUREA, 684-93-5, N-BUTYL-N-(4-HYDROXYBUTYL)NITROSAMINE, 3817-11-6, DIMETHY, Carcinogen: DIETHYLNITROSAMINE, 55-18-5, N-METHYL-N-NITROSOUREA, 684-93-5, N-BUTYL-N-(4-HYDROXYBUTYL)NITROSAMINE, 3817-11-6, DIMETHY, 1% IN DIET FOR 30 DAYS BEGINNING 1 DAY PRIOR TO CARCINOGEN TREATMENT (STUDY DURATION: 28 WK), Strain/Sex: F344/MALE, Target Tissue: Type of Lesion: URINARY BLADDER: PAPILLOMA, Dose [Carcinogen]: 100 MG/KG BW DEN ONCE FOLLOWED BY 20 MG/KG BW MNU 4 TIMES AND 0.05% BBN IN DRINKING WATER DURING FIRST 2 WK THEN 40 MG/K","7%, 7%, 0%, not significant"
same,"tumour outcome (control, treated, inhibition, significance)","Carcinogen: DIETHYLNITROSAMINE, 55-18-5, N-METHYL-N-NITROSOUREA, 684-93-5, N-BUTYL-N-(4-HYDROXYBUTYL)NITROSAMINE, 3817-11-6, DIMETHY, Carcinogen: DIETHYLNITROSAMINE, 55-18-5, N-METHYL-N-NITROSOUREA, 684-93-5, N-BUTYL-N-(4-HYDROXYBUTYL)NITROSAMINE, 3817-11-6, DIMETHY, 1% IN THE DIET FOR 24 WK BEGINNING 1 DAY POST CARCINOGEN TREATMENT ( STUDY DURATION: 28 WK), Strain/Sex: F344/MALE, Target Tissue: Type of Lesion: LARGE INTESTINE: CARCINOMA, Dose [Carcinogen]: 100 MG/KG BW DEN ONCE FOLLOWED BY 20 MG/KG BW MNU 4 TIMES AND 0.05% BBN IN DRINKING WATER DURING FIRST 2 WK THEN 40 MG/K","7%, 13%, -86%, not significant"
same,"tumour outcome (control, treated, inhibition, significance)","Carcinogen: DIETHYLNITROSAMINE, 55-18-5, N-METHYL-N-NITROSOUREA, 684-93-5, N-BUTYL-N-(4-HYDROXYBUTYL)NITROSAMINE, 3817-11-6, DIMETHY, Carcinogen: DIETHYLNITROSAMINE, 55-18-5, N-METHYL-N-NITROSOUREA, 684-93-5, N-BUTYL-N-(4-HYDROXYBUTYL)NITROSAMINE, 3817-11-6, DIMETHY, 1% IN THE DIET FOR 24 WK BEGINNING 1 DAY POST CARCINOGEN TREATMENT (STUDY DURATION: 28 WK), Strain/Sex: F344/MALE, Target Tissue: Type of Lesion: LARGE INTESTINE: ADENOMA, Dose [Carcinogen]: 100 MG/KG BW DEN ONCE FOLLOWED BY 20 MG/KG BW MNU 4 TIMES AND 0.05% BBN IN DRINKING WATER DURING FIRST 2 WK THEN 40 MG/K","27%, 47%, -74%, not significant"
